The subject of one assay is c-Myc. Put plainly: Measurement of c-Myc suppression after washoff (Western blot). It is filed as cell-based, human. Particulars: MV4-11, 2 μM for 2 hr, washed, further 6 hr. Here is the method:
MV4-11 cells were incubated with 2 μM of JQ1, mivebresib or a test compound for 2 hr. The cells were then washed twice with fresh culture medium and further cultured for another 6 hr. Cells were extracted with SDS sample buffers and then subjected to Western blot analysis to measure c-Myc. Compounds 2, 3, 12, 17, 409, 411 and 412 were tested in these assays.
On the technique in general: A western blot detects proteins with antibodies after separation by electrophoresis.

A further assay addresses BRD4-1 (Homo sapiens (Human), UniProt O60885). The assay can be described thus: Bromodomain and Extraterminal Domain (BET) Binding Assay. In a few lines:
(§1)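 AlphaScreen displacement of biotinylated H4 (1-21) K5/8/12/16Ac peptide, in 50 mM HEPES pH 7.5, 100 mM NaCl, 1 mg/ml BSA, 0.05% CHAPS, 0.5% DMSO. Protein-compound preincubation 30 min RT, then ligand 30 min, donor then acceptor beads 60 min dark. Inhibition versus plate controls; IC50 from 10-point titrations.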

For the next assay, the target named is BRDT-1 (Homo sapiens (Human), UniProt Q58F21). The description is as above. In a few lines: as §1
The target of a further assay is BRD3-1 (Homo sapiens (Human), UniProt Q15059). The assay is described as above. In a few lines:
as §1

The next assay deals with BRD2-1 (Homo sapiens (Human), UniProt P25440). The description is as above. In a few lines:
as §1

The next assay has as its target BRD4-2 (Homo sapiens (Human), UniProt O60885). The description is as above. In a few lines:
as §1

For the next assay, the target named is BRD2-2 (Homo sapiens (Human), UniProt P25440). The assay is described as above. Summed up: as §1
The next assay deals with BRD3-2 (Homo sapiens (Human), UniProt Q15059). The assay is described as above. In a few lines:
as §1

For assay [1], the system named is IEC-6 rat intestinal epithelial cell line. The assay can be described thus: IEC-6 cell viability, Protocol B (toxicity to non-cancerous cells). The class given is cell-based. The following applies: Rattus norvegicus; IEC-6, 4000 cells per well, 48 hrs. Here is the method: The effects of test compounds were also studied in the IEC-6 rat intestinal epithelial cell line to assess potential toxicity to non-cancerous cells. The cells were harvested during the logarithmic growth period and counted. In Protocol A, cells were seeded at a count of 3000 cells per well/100 μl in a 96-well plate. After seeding, cells were incubated at 37° C., 5% CO2 for 24 hr. Cells were treated with test compounds at 8 concentrations within a desired concentration range (e.g. 5 nM-10 μM) for generation of dose response curves by preparing serial dilutions of the test compound in DMSO which were further diluted with culture medium and then added to each well. The plate was further incubated for another 96 hrs in humidified incubator at 37° C. and 5% CO2. The assay was terminated by addition of resazurin (# R7017, Sigma). The plate was incubated for 4 hr at 37° C., 5% CO2 and fluorescence was measured using excitation and emission wavelengths of 535 and 590 nm, respectively. Cell viability data were plotted using GraphPad Prism (GraphPad Software, Inc., San Diego, Calif.). In addition, a nonlinear regression model with a sigmoidal dose response and variable slope within GraphPad Prism was used to calculate the IC50 value of individual test compounds. Protocol B was the same as Protocol A except that cells were seeded at a count of 4000 cells per well/100 μl in a 96-well plate, and the incubation with test compound was for 48 hrs instead of 96 hrs.

For a further assay, the system named is OCI-AML3. Put plainly: Cell viability in AML and DLBCL cell lines (Cell Titer-Glo). The class given is cell-based. Particulars: Homo sapiens, OCI-AML-3, 72 hr. The procedure:
(§2) A panel of AML and DLBCL cell lines was profiled for effects of compound 3 on cell viability. Cells were seeded at a count of 3000-8000 cells per well/40 μl in a 384-well plate and incubated at 37° C., 5% CO2 overnight. Cells were treated with test compounds at 10 concentrations within a desired concentration range (e.g. 0.5 nM-10 μM) for generation of dose response curves by preparing serial dilutions of the test compound in DMSO which were further diluted with culture medium and then added in a volume of […] to each well. Cells were cultured in the presence of inhibitors at various concentrations for 72 hr. The assay was terminated by addition of […] Cell Titer-Glo reagent (Promega, Madison, Wis.) to each well. Contents were mixed, the plate was incubated for 10 min at room temperature and luminescence was measured. The IC50 value of each test compound was calculated with XLFit curve fitting software.
On the technique in general: ATP-based viability assays read luminescence as a measure of living cells.

The test system of the next assay is NOMO-1. The description is as above. The class given is cell-based. The following applies: Homo sapiens; NOMO-1, Cell Titer-Glo, 72 hr. Here is the method:
as §2

The next assay relates to SU-DHL4. The assay is described as above. The class given is cell-based. Particulars: Homo sapiens, SU-DHL-4, 72 hr. The procedure:
as §2

The next assay relates to KOPN-8. Described as above. The following applies: Homo sapiens; KOPN-8, Cell Titer-Glo, 72 hr. It is filed as cell-based. The procedure:
as §2

The next assay deals with WSU-DLCL2. Described as above. The class given is cell-based. Particulars: Homo sapiens, WSUDLCL2, 72 hr. The procedure: as §2
The subject of another assay is RS4; 11. The assay is described as above. The following applies: Homo sapiens, 11, Cell Titer-Glo, 72 hr. It is filed as cell-based. The procedure: as §2
The next assay relates to SU-DHL6. The description is as above. The following applies: Homo sapiens, SU-DHL-6, 72 hr. The class given is cell-based. Here is the method: as §2
In another assay the test system is KG-1a. The assay is described as above. It is filed as cell-based. Particulars: Homo sapiens, 72 hr. The procedure: as §2

Data on one compound can be found in patent US11192900B2, “Substituted 1,6-dihydropyridinones and 1,2-dihydroisoquinolinones as bet inhibitors” (NUVATION BIO INC., priority 2018, dated 2021).

Structures are written as SMILES. Where two headings read alike, the source gives them in different places.

By IC50 is commonly meant the point on the concentration scale where inhibition reaches its midpoint.

Sequence of BRD2-2 (P25440 344-453): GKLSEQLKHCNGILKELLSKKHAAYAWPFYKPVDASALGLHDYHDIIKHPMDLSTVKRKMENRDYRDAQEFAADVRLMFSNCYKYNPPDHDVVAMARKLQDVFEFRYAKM
Sequence of BRD3-2 (Q15059 306-415): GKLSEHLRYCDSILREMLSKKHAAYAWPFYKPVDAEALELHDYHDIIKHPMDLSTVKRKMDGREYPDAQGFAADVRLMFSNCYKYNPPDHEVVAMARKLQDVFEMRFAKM
Sequence of BRD3-1 (Q15059 34-140): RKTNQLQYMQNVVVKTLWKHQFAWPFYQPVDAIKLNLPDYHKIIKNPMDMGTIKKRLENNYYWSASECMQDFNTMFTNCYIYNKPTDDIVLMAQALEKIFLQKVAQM
Sequence of BRD2-1 (P25440 74-180): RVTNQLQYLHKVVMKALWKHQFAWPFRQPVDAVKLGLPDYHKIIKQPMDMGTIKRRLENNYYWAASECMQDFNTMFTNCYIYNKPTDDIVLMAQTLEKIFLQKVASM

For the compound `C=CS(=O)(=O)Nc1ccc(Oc2ccc(F)cc2F)c(-c2cc(NC)c(=O)n(C)c2)c1` [Compound 3, N-(4-(2,4-difluorophenoxy)-3-(1-methyl-5-(methylamino)-6-oxo-1,6-dihydropyridin-3-yl)phenyl)ethenesulfonamide], the “c-Myc suppression activity after washoff” value with c-Myc is given as “sustained c-Myc suppression activity”. The IC50 on BRD4-1 (Table 2, read-out: BET IC50 BRD4-1) came to 0.024 µM; at BRD4-1 (Table 3, read-out: BRD4-1 IC50) it was 0.024 µM; on BRDT-1, 0.031 µM; on BRD3-1, 0.035 µM; on BRD2-1, 0.016 µM; on BRD4-2 (Table 2, read-out: BET IC50 BRD4-2), 0.021 µM. Moreover, the IC50 at BRD4-2 (Table 3, read-out: BRD4-2 IC50) is 0.021 µM; at BRD2-2 it was 0.012 µM; at BRD3-2 it was 0.029 µM; in [1], 0.173 µM; with OCI-AML3, 0.05 µM; in the assay with NOMO-1, 0.205 µM. Also, the IC50 in the assay with SU-DHL4 was 0.022 µM; with KOPN-8, 0.009 µM; with WSU-DLCL2, 0.084 µM; in the assay on RS4; 11, 0.128 µM; in the assay with SU-DHL6 it was 0.047 µM; with KG-1a it was 0.285 µM.
